The values that follow come from EP4755888A1 (ILAb Co., Ltd., priority 2023, dated 2025).

Structures are written as SMILES. A value given as a limit tells only on which side of the number the result lay.

The target in this experiment is PD-1/PD-L1 (Homo sapiens, UniProt Q9NZQ7). Description: TR-FRET PD-1/PD-L1 binding inhibition at the molecular level (free proteins). To be noted: Tag1-PD-L1 and Tag2-PD-1 proteins, twelve concentrations from 200 nM, 2 hours at room temperature, read-out: FRET assay (IC50). In short, it runs like this:
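HTRF read-out at 665/620 nm after 2 h at room temperature. Detection used anti-Tag1 Eu cryptate plus anti-Tag2 XL665 antibodies. Tagged PD-L1 and PD-1 proteins were pre-mixed with compound across twelve […] 1:2 dilutions starting at 200 nM.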
(In general: In TR-FRET formats the signal depends on donor and acceptor labels being close together.)

PD-1/PD-L1, sequence (Q9NZQ7 19-238 limits assumed): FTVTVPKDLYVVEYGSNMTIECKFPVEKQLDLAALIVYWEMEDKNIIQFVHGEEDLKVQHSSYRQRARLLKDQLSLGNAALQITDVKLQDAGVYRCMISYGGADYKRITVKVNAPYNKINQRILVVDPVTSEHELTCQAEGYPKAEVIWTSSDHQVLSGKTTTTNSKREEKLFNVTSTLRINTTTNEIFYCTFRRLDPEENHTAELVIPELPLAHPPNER

`Cc1c(NC(=O)c2cc3n(n2)CCCC3N2CC[C@@H](O)C2)cccc1-c1cccc(-c2cc3n(n2)CCCC3N2CC[C@@H](O)C2)c1C` (stereo partly drawn) [Compound 161, 4-((R)-3-hydroxypyrrolidin-1-yl)-N-(3'-(4-((R)-3-hydroxypyrrolidin-1-yl)-4,5,6,7-tetrahydropyrazolo[1,5-a]pyridin-2-yl)-2,2'-dimethyl-[1,1'-biphenyl]-3-yl)-4,5,6,7-tetrahydropyrazolo[1,5-a]pyridine-2-carboxamide]: the IC50 (commonly the concentration needed to halve the response being measured) is 10 to 100 nM.
As to `COc1nc(-c2cccc(-c3cccc(-c4cc5n(n4)CCCC5NCCO)c3C)c2C)cnc1CNC[C@@H]1CCC(=O)N1` (stereo partly drawn) [Compound 162, (5S)-5-((((5-(3'-(4-((2-hydroxyethyl)amino)-4,5,6,7-tetrahydropyrazolo[1,5-a]pyridin-2-yl)-2,2'-dimethyl-[1,1'-biphenyl]-3-yl)-3-methoxypyrazin-2-yl)methyl)amino)methyl)pyrrolidin-2-one], the IC50 fell in the range of 10 to 100 nM.
As for `COc1nc(-c2cccc(-c3cccc(-c4cc5n(n4)CCCC5NCC(=O)O)c3C)c2C)cnc1CNC[C@@H]1CCC(=O)N1` (stereo partly drawn) [Compound 163, 2-((2-(3'-(6-methoxy-5-(((((S)-5-oxopyrrolidin-2-yl)methyl)amino)methyl)pyrazin-2-yl)-2,2'-dimethyl-[1,1'-biphenyl]-3-yl)-4,5,6,7-tetrahydropyrazolo[1,5-a]pyridin-4-yl)amino)acetic acid], the half-inhibitory concentration (IC50) lay in the range of 10 to 100 nM.
Take `COc1nc(-c2cccc(-c3cccc(-c4cc5n(n4)CCCC5N4CC[C@@H](O)C4)c3C)c2C)cnc1CNC[C@@H]1CCC(=O)N1` (stereo partly drawn) [Compound 164, (5S)-5-((((5-(3'-(4-((R)-3-hydroxypyrrolidin-1-yl)-4,5,6,7-tetrahydropyrazolo[1,5-a]pyridin-2-yl)-2,2'-dimethyl-[1,1'-biphenyl]-3-yl)-3-methoxypyrazin-2-yl)methyl)amino)methyl)pyrrolidin-2-one]: the IC50 is 10 to 100 nM.
For `COc1nc(-c2cccc(-c3cccc(-c4cc5n(n4)CCCC5N4CC[C@@H](C(=O)O)C4)c3C)c2C)cnc1CNC[C@@H]1CCC(=O)N1` (stereo partly drawn) [Compound 165, (3R)-1-(2-(3'-(6-methoxy-5-(((((S)-5-oxopyrrolidin-2-yl)methyl)amino)methyl)pyrazin-2-yl)-2,2'-dimethyl-[1,1'-biphenyl]-3-yl)-4,5,6,7-tetrahydropyrazolo[1,5-a]pyridin-4-yl)pyrrolidine-3-carboxylic acid], the half-maximal inhibitory concentration (IC50) was under 10 nM.
Consider `COc1nc(-c2cccc(-c3cccc(-c4cc5n(n4)CCCC5N4CCC(O)CC4)c3C)c2C)cnc1CNC[C@@H]1CCC(=O)N1` (stereo partly drawn) [Compound 166, (5S)-5-((((5-(3'-(4-(4-hydroxypiperidin-1-yl)-4,5,6,7-tetrahydropyrazolo[1,5-a]pyridin-2-yl)-2,2'-dimethyl-[1,1'-biphenyl]-3-yl)-3-methoxypyrazin-2-yl)methyl)amino)methyl)pyrrolidin-2-one], for which the IC50 is 10 to 100 nM.
`COc1nc(-c2cccc(-c3cccc(-c4cc5n(n4)CCCC5N4CCC(C(=O)O)CC4)c3C)c2C)cnc1CNC[C@@H]1CCC(=O)N1` (stereo partly drawn) [Compound 167, 1-(2-(3'-(6-methoxy-5-(((((S)-5-oxopyrrolidin-2-yl)methyl)amino)methyl)pyrazin-2-yl)-2,2'-dimethyl-[1,1'-biphenyl]-3-yl)-4,5,6,7-tetrahydropyrazolo[1,5-a]pyridin-4-yl)piperidine-4-carboxylic acid]: the 50% inhibitory concentration (IC50) was in the range of 10 to 100 nM.
For the compound `COc1nc(-c2cccc(-c3cccc(-c4cc5n(n4)CCCC5NCCO)c3Cl)c2Cl)cnc1CNC[C@@H]1CCC(=O)N1` (stereo partly drawn) [Compound 168, (5S)-5-((((5-(2,2'-dichloro-3'-(4-((2-hydroxyethyl)amino)-4,5,6,7-tetrahydropyrazolo[1,5-a]pyridin-2-yl)-[1,1'-biphenyl]-3-yl)-3-methoxypyrazin-2-yl)methyl)amino)methyl)pyrrolidin-2-one], the half-inhibitory concentration (IC50) was under 10 nM.
